IC50 data for 20 compounds are collected here from patent US11590139B2, “Substituted aminopurine compounds, compositions thereof, and methods of treatment therewith” (Signal Pharmaceuticals, LLC, priority 2014, dated 2023).

The structures appear in SMILES notation. Bounds are passed on as bounds.

The subject of the first experiment is Lox-IMVI melanoma cell line. Nature of the experiment: Lox-IMVI anti-proliferative assay (growth inhibition, Cell Titer-Glo). Particulars: Homo sapiens; IC50 activity level in the cell-based Lox-IMVI anti-proliferative assay; read-out: Activity. The format is cell-based, human. An outline of the steps:
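Viability read by ATP luminescence (Cell Titer-Glo) at t0 and after 72 h at 37 °C, 5% CO2, with normalisation to DMSO-treated cells. Compound tested at 0.5 nM–10 μM in 3-fold, 10-point series (0.2% DMSO final) on Lox-IMVI in RPMI+10% FBS; IC50 by 4-parameter sigmoidal fit.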
Background: Cellular ATP, detected with luciferase, serves as a proxy for viable cell number.
With `NC(=O)[C@H]1CC[C@@H](n2c(Nc3c(Cl)cc(Cl)cc3Cl)nc3cnc(N[C@H]4CCOC4)nc32)CC1` [Example 87, (1R,4s)-4-(2-((S)-tetrahydrofuran-3-ylamino)-8-(2,4,6-trichlorophenylamino)-9H-purin-9-yl)cyclohexanecarboxamide], the IC50 lay within 500 to 1000 nM. As for `NC(=O)[C@H]1CC[C@@H](n2c(Nc3c(F)cccc3F)nc3cnc(N[C@@H]4CCOC[C@@H]4F)nc32)CC1` [Example 304, (1S,4s)-4-(8-(2,6-difluorophenylamino)-2-((3R,4R)-3-fluorotetrahydro-2H-pyran-4-ylamino)-9H-purin-9-yl)cyclohexanecarboxamide], the IC50 was greater than 1000 nM. As for `CC[C@H](C)Nc1ncc2nc(Nc3c(F)cc(F)cc3F)n([C@H]3CC[C@@H](C(N)=O)CC3)c2n1` [Example 334, (1R,4s)-4-(2-(sec-butylamino)-8-(2,4,6-trifluorophenylamino)-9H-purin-9-yl)cyclohexanecarboxamide], the IC50 is 500 to 1000 nM. For `C[C@@H]1CC[C@@H](Nc2ncc3nc(Nc4c(Cl)cc(F)cc4Cl)n([C@H]4CC[C@@H](C(N)=O)CC4)c3n2)C[C@H]1O` [Example 355, (1S,4s)-4-(8-(2,6-dichloro-4-fluorophenylamino)-2-((1R,3R,4R)-3-hydroxy-4-methylcyclohexylamino)-9H-purin-9-yl)cyclohexanecarboxamide], the IC50 was greater than 1000 nM. As for `NC(=O)[C@H]1CC[C@@H](n2c(Nc3c(Cl)ccc(F)c3F)nc3cnc(NC4CCOCC4)nc32)CC1` [Example 113, (1s,4s)-4-(8-(6-chloro-2,3-difluorophenylamino)-2-(tetrahydro-2H-pyran-4-ylamino)-9H-purin-9-yl)cyclohexanecarboxamide], the IC50 is 500 to 1000 nM.

The experiment is the same for the next values; noted with them: Homo sapiens; Lox-IMVI anti-proliferative assay, IC50 activity level; read-out: Activity.
Take `C[C@]1(C(N)=O)CC[C@@H](n2c(Nc3c(F)cc(F)cc3F)nc3cnc(NC4CCCC4)nc32)CC1` [Example 556, (1s,4s)-4-(2-(cyclopentylamino)-8-(2,4,6-trifluorophenylamino)-9H-purin-9-yl)-1-methylcyclohexanecarboxamide]: the IC50 was less than 250 nM. For `NC(=O)[C@H]1CC[C@@H](n2c(Nc3c(F)cc(F)cc3Cl)nc3cnc(N[C@H]4CCC[C@H](O)C4)nc32)CC1` [Example 459, (1R,4s)-4-(8-(2-chloro-4,6-difluorophenylamino)-2-((1S,3S)-3-hydroxycyclohexylamino)-9H-purin-9-yl)cyclohexanecarboxamide], the IC50 is greater than 1000 nM. Consider `NC(=O)[C@H]1CC[C@@H](n2c(Nc3c(Cl)cc(Cl)cc3Cl)nc3cnc(N[C@@H]4CCC[C@@H](O)C4)nc32)CC1` [Example 415, (1S,4s)-4-(2-((1R,3R)-3-hydroxycyclohexylamino)-8-(2,4,6-trichlorophenylamino)-9H-purin-9-yl)cyclohexanecarboxamide], for which the IC50 was 500 to 1000 nM. For the compound `C[C@]1(C(N)=O)CC[C@@H](n2c(Nc3c(Cl)cc(F)cc3Cl)nc3cnc(NC4CCCC4)nc32)CC1` [Example 560, (1s,4s)-4-(2-(cyclopentylamino)-8-(2,6-dichloro-4-fluorophenylamino)-9H-purin-9-yl)-1-methylcyclohexanecarboxamide], the IC50 fell in the range of 250 to 500 nM. Take `C[C@]1(C(N)=O)CC[C@@H](n2c(Nc3c(F)cc(C#N)cc3F)nc3cnc(NC4CCOCC4)nc32)CC1` [Example 524, (1s,4s)-4-(8-(4-cyano-2,6-difluorophenylamino)-2-(tetrahydro-2H-pyran-4-ylamino)-9H-purin-9-yl)-1-methylcyclohexanecarboxamide]: the IC50 is less than 250 nM. As for `NC(=O)[C@H]1CC[C@@H](n2c(Nc3c(F)cc(Cl)cc3F)nc3cnc(N[C@H]4CCC[C@H](O)C4)nc32)CC1` [Example 460, (1R,4s)-4-(8-(4-chloro-2,6-difluorophenylamino)-2-((1S,3S)-3-hydroxycyclohexylamino)-9H-purin-9-yl)cyclohexanecarboxamide], the IC50 was greater than 1000 nM. On to `C[C@@H](CO)Nc1ncc2nc(Nc3c(Cl)cc(F)cc3Cl)n([C@H]3CC[C@@](C)(C(N)=O)CC3)c2n1` [Example 551, (1R,4s)-4-(8-(2,6-dichloro-4-fluorophenylamino)-2-((S)-1-hydroxypropan-2-ylamino)-9H-purin-9-yl)-1-methylcyclohexanecarboxamide], for which the IC50 was less than 250 nM.

Staying with this experiment, now noted: Homo sapiens; Lox-IMVI melanoma cell line, anti-proliferative assay; read-out: Activity (IC50 activity level).
For `NC(=O)[C@H]1CC[C@@H](n2c(Nc3c(F)cc(Cl)cc3Cl)nc3cnc(NC[C@@H]4CCCC[C@@H]4O)nc32)CC1` [Example 655, (1R,4s)-4-(8-(2,4-dichloro-6-fluorophenylamino)-2-(((1S,2S)-2-hydroxycyclohexyl)methylamino)-9H-purin-9-yl)cyclohexanecarboxamide], the IC50 is greater than 1000 nM. On to `C[C@]1(C(N)=O)CC[C@@H](n2c(Nc3c(Cl)cc(F)cc3Cl)nc3cnc(N[C@H]4CC[C@H](O)C4)nc32)CC1` [Example 647, (1R,4s)-4-(8-(2,6-dichloro-4-fluorophenylamino)-2-((1S,3S)-3-hydroxycyclopentylamino)-9H-purin-9-yl)-1-methylcyclohexanecarboxamide], for which the IC50 is 500 to 1000 nM. Same read-out and setting: the value for `C[C@]1(C(N)=O)CC[C@@H](n2c(Nc3c(Cl)cc(C#N)cc3Cl)nc3cnc(N[C@@H]4CCOC[C@H]4F)nc32)CC1` [Example 760, (1S,4s)-4-(8-(2,6-dichloro-4-cyanophenylamino)-2-((3S,4R)-3-fluorotetrahydro-2H-pyran-4-ylamino)-9H-purin-9-yl)-1-methylcyclohexanecarboxamide] was less than 250 nM; that for `NC(=O)[C@H]1CC[C@@H](n2c(Nc3c(F)cc(F)cc3Cl)nc3cnc(NC[C@@H]4CCCC[C@H]4O)nc32)CC1` [Example 660, (1R,4s)-4-(8-(2-chloro-4,6-difluorophenylamino)-2-(((1S,2R)-2-hydroxycyclohexyl)methylamino)-9H-purin-9-yl)cyclohexanecarboxamide] was greater than 1000 nM. Same read-out and setting: with `NC(=O)[C@H]1CC[C@@H](n2c(Nc3c(F)cc(Cl)cc3Cl)nc3cnc(N[C@@H]4CCCN(c5ccccc5)C4)nc32)CC1` [Example 748, (1S,4s)-4-(8-(2,4-dichloro-6-fluorophenylamino)-2-((R)-1-phenylpiperidin-3-ylamino)-9H-purin-9-yl)cyclohexanecarboxamide] the figure was greater than 1000 nM; with `C[C@]1(C(N)=O)CC[C@@H](n2c(Nc3c(F)cc(Cl)cc3Cl)nc3cnc(N[C@H]4CCOC[C@H]4F)nc32)CC1` [Example 716, (1R,4s)-4-(8-(2,4-dichloro-6-fluorophenylamino)-2-((3S,4S)-3-fluorotetrahydro-2H-pyran-4-ylamino)-9H-purin-9-yl)-1-methylcyclohexanecarboxamide], less than 250 nM. With `CC(=O)N1CCC[C@@H](Nc2ncc3nc(Nc4c(F)cc(F)cc4Cl)n([C@H]4CC[C@@H](C(N)=O)CC4)c3n2)C1` [Example 797, (1S,4s)-4-(2-((R)-1-acetylpiperidin-3-ylamino)-8-(2-chloro-4,6-difluorophenylamino)-9H-purin-9-yl)cyclohexanecarboxamide], the IC50 is greater than 1000 nM.

The same experiment, now with this note: Lox-IMVI anti-proliferative assay, IC50 activity level; read-out: Activity.
With `N#Cc1cc(F)c(Nc2nc3cnc(N[C@H]4CCCOCC4)nc3n2C2CCC(C(N)=O)CC2)c(F)c1` (some centres unmarked) [Example 542, (1s,4s)-4-(8-(4-cyano-2,6-difluorophenylamino)-2-(oxepan-4-ylamino)-9H-purin-9-yl)cyclohexanecarboxamide], the IC50 was greater than 1000 nM.
